Measured values published in US12459951B2, “Compounds that interact with RAS superfamily proteins for treatment of cancers, inflammatory diseases, rasopathies, and fibrotic disease” (SHY Therapeutics, LLC, priority 2022, dated 2025).

How the values were obtained:
[1] = Mouse Liver Microsome Metabolic Stability Assay; assay type: in vitro ADME; settings: pH 7.4, Mouse liver microsomes, 37° C., NADPH, read-out: t½
Description: Biological Example 10: Assessment of Metabolic Stability in Mouse Liver Microsomes
Metabolic Stability Assay: Microsomal incubations were carried out in 96-well plates in 5 aliquots of 30 μL each (one for each time point). Liver microsomal incubation medium comprised of phosphate buffer (100 mM, pH 7.4), MgCl2 (3.3 mM), NADPH (3 mM), glucose-6-phosphate (5.3 mM), glucose-6-phosphate dehydrogenase (0.67 units/ml) with 0.42 mg of liver microsomal protein per mL. In the control reactions the NADPH-cofactor system was substituted with phosphate buffer. Test compounds (2 μM, final solvent concentration 1.6%) were incubated with microsomes at 37° C., shaking at 100 rpm. Each reaction was performed in duplicates. Five time points over 40 minutes were analyzed. The reactions were stopped by adding 5 volumes of methanol containing internal standard to incubation aliquots, followed by protein sedimentation by centrifuging at 5500 rpm for 4 minutes. Supernatants were analyzed using the HPLC system coupled with tandem mass spectrometer.
The elimination constant (kel), half-life (t1/2) and intrinsic clearance (Clint) were determined in plot of […] versus time, using linear regression analysis:
In order to indicate the quality of the linear regression analysis, the R (correlation coefficient) values are provided. In some cases, the last time point is excluded from the calculations to ensure acceptable logarithmic linearity of decay.
Table 9 show metabolic stability data for selected compounds tested in the Mouse Liver Microsome Metabolic Stability assay described above.

Erk1/2 phosphorylation = assay: Erk1/2 Phosphorylation Assay (western blot), Panc-1; assay type: cell-based, human; settings: at 10 μM, * = activation
Outline: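 KRas G12D Panc-1 cells were treated 6 h at 37° C with compound at 10 μM or serial dilutions for IC50 (0.3% DMSO). In method 1, cells were serum-starved overnight (0.5% FBS) and then given 1.5 ng/ml EGF for 15 min. In method 2, cells stayed in 10% FBS without stimulation. Lysate phospho-Erk1/2 (Thr202/Tyr204) was read by western blot.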

[2] = Kinetic Solubility Assay in pH 7.4 Buffer + 2% DMSO; assay type: physicochemical; settings: phosphate-buffered saline pH 7.4 with 2% DMSO, aqueous buffer, kinetic from dmso stock, 25° C., two hours
Description: Biological Example 9: Kinetic Solubility
Kinetic solubility assay in pH 7.4 Buffer+2% DMSO (“Kinetic Solubility Assay) was performed according to the following protocol: Briefly, using a 20 mM stock solution of the tested compounds in 100% DMSO, dilutions were prepared to a theoretical concentration of 400 μM in duplicates in phosphate-buffered saline pH 7.4 (138 mM NaCl, 2.7 mM KCl, 10 mM K-phosphate) with 2% final DMSO. The tested compounds dilutions in PBS were further allowed to equilibrate at 25° C. on a thermostatic shaker for two hours and then filtered through HTS filter plates using a vacuum manifold. The filtrates of the test compounds were diluted 2-fold with acetonitrile with 2% DMSO before measuring.
In parallel, using a 20 mM stock solution of the tested compounds in 100% DMSO, dilutions were prepared to theoretical concentrations of 0 μM (blank), 10 μM, 25 μM, 50 μM, 100 μM, and 200 μM in 50% acetonitrile/PBS with 2% final DMSO to generate calibration curves. Ondansetron was used as a reference compound to control proper assay performance. 200 μL of each sample was transferred to a 96-well plate and measured in the 230-550 nm range with a 5 nm step.
The concentrations of compounds in PBS filtrate are calculated using a dedicated Microsoft Excel calculation script. Proper absorbance wavelengths for calculations are selected for each compound manually based on absorbance maximums (absolute absorbance unit values for the minimum and maximum concentration points within the 0-3 OD range). Each final dataset is visually evaluated by the operator, and goodness of fit (R2) is calculated for each calibration curve. The effective range of this assay is approximately 2-400 μM and the compounds returning values close to the upper limit of the range may have higher actual solubility (e.g., 5′-deoxy-5-fluorouridine).
Table 8 show kinetic solubility data for selected compounds tested in the Kinetic Solubility assay described above.

SMILES | half-life at 2 µM [1] | % inh of Erk1/2 phosphorylation in Panc-1 (Erk1/2 phosphorylation) | solubility at 2 h [2]
COc1cc(Nc2nc(-c3nccn3C)nn3cc(-c4ccn(C(C)C)n4)c(C)c23)ncn1 [Compound 6, 6-(1-Isopropyl-1H-pyrazol-3-yl)-N-(6-methoxypyrimidin-4-yl)-5-methyl-2-(1-methyl-1H-imidazol-2-yl)pyrrolo[2,1-f][1,2,4]triazin-4-amine] | > 10 min | 0 (0% inhibition) | < 10 µM
COc1ccnc(Nc2nc(-c3nccn3C)nn3cc(-c4ccn(C5CC5)n4)c(C)c23)c1 [Compound 137, 6-(1-Cyclopropyl-1H-pyrazol-3-yl)-N-(4-methoxypyridin-2-yl)-5-methyl-2-(1-methyl-1H-imidazol-2-yl)pyrrolo[2,1-f][1,2,4]triazin-4-amine] | > 10 min | B* (26-49% activation) | 10 to 30 µM
Cc1c(-c2ccn(C3CC3)n2)cn2nc(-c3nccn3C)nc(Nc3cc(OC4CC4)ccn3)c12 [Compound 142, N-(4-Cyclopropoxypyridin-2-yl)-6-(1-cyclopropyl-1H-pyrazol-3-yl)-5-methyl-2-(1-methyl-1H-imidazol-2-yl)pyrrolo[2,1-f][1,2,4]triazin-4-amine] | > 10 min | C (50-84% inhibition) | 10 to 30 µM
COc1ccnc(Nc2nc(-c3nccn3C)nn3cc(-c4ccn(C)n4)c(C)c23)c1 [Compound 102, N-(4-Methoxypyridin-2-yl)-5-methyl-2-(1-methyl-1H-imidazol-2-yl)-6-(1-methyl-1H-pyrazol-3-yl)pyrrolo[2,1-f][1,2,4]triazin-4-amine] | > 10 min | A* (1-25% activation) | > 30 µM
